Data reported in patent publication US8642096B2, “Pharmaceutical composition containing herbal extract for prevention or treatment of nephritis” (Ahn-Gook Pharmaceutical Co., Ltd., priority 2009, dated 2014).
Values joined by “and” are separate entries in the source; they are usually repeats but may differ in a detail not shown here. Equal entries are not always repeated.

Experiments:
[1] = test system: croton oil-induced ear edema; experiment: Mouse ear edema inhibition test (croton oil); assay type: in vivo, male ICR mouse; settings: ear swelling thickness 4 hours after 2.5% croton oil, oral 20 mg/kg, 1 hour before
Experimental: To achieve active fraction and ingredient identification of herbal extracts, an activity-guided sub-fractionation was conducted by way of a mouse ear edema inhibition test. To evaluate the edema inhibitory effects of the MC, EA and BuOH fractions from the herbal extracts of Examples 1.2 and 1.3 and the three compounds identified above, an activity test was conducted according to a method by Hee Kee Kim et al. [Hee Kee Kim et al., Arch. Pharm. Res. 16(1), 1993, 18-24]. The positive control group received Indomethacin (purchased from Sigma) at a dosage of 20 mg/kg. The test group received 200 mg/kg of the MC, EA or BuOH fraction, or 20 mg/kg of the compound 1, 2 or 3. One hour after the oral administration, 2.5% croton oil (purchased from Sigma) was applied to the one ear of a male ICR mouse (7 weeks old, 28-32 g, Orient) to induce an acute inflammation. In 4 hours, the swelling of the ear was measured in terms of thickness.

[2] = test system: gentamicin-induced nephritis model; experiment: Therapeutic effect of compounds 1-3 on gentamicin-induced nephritis model (Experimental Example 10); assay type: in vivo, male SD rats; settings: for Creatinine / B.U.N.: 20 mg/kg; for Creatinine: negative control 1.32 ± 0.12, normal 0.45 ± 0.01; for B.U.N.: negative control 83.0 ± 5.1, normal 12.4 ± 0.6
Experimental: A normal group was subjected to the tests, where a nephritis-inducing factor, gentamicin (purchased from Whail Pharma. Co., Ltd.) was administered to male SD rats (7 weeks old, 195-205 g, Orient) at a dosage of 240 mg/kg for 6 days through an intraperitioneal injection to induce nephritis. Among the test rats with induced nephritis, the test groups other than the negative control group received the 2 test drugs of Example 2 or the test drug of Example 3.1 or 3.4 orally at a daily dosage of 400 mg/kg. The test rats were autopsied 7 days after the oral administrations. The blood samples collected were analyzed to detect blood urea nitrogen (B.U.N.) and creatinine.
To evaluate the therapeutic effect for nephritis of the three compounds of Experimental Example 9, the procedures were carried out in the same manner of Experimental Example 1 to measure the B.U.N and creatinine contents in the gentamicin-induced nephritis model. Reagents were the compounds 1, 2 and 3, which were the active fractions from the herbal extracts of Cinnamomi Cortex and Prunella Spica.

[3] = relative to negative control group

SMILES | % Inhibition ([1]; 20 mg/kg) | Creatinine [2] [mg/dL] | B.U.N. [2] [mg/dL] | effect on blood urea nitrogen (B.U.N.) content [2, 3] | effect on creatinine content [2, 3] | % Inhibition [1] [%] | % Inhibition ([1]; listed as positive control group, 20 mg/kg) [%]
O=C(O)C=Cc1ccccc1 [Compound 1, Cinnamic acid] | 42% and 42.40% | 0.81 ± 0.07 | 47.7 ± 5.7 | showed an effect of reducing the blood urea nitrogen (B.U.N.) content | reduced the creatinine content | – | –
O=c1ccc2ccccc2o1 [Compound 2, Coumarin] | 39% and 38.79% | 0.88 ± 0.06 | 50.9 ± 4.7 | showed an effect of reducing the blood urea nitrogen (B.U.N.) content | – | – | –
O=C(/C=C/c1ccc(O)c(O)c1)O[C@H](Cc1ccc(O)c(O)c1)C(=O)O [Compound 3, Rosmarinic acid] | – | 0.97 ± 0.06 | 63.1 ± 7.2 | – | – | 28.90 | –
COc1ccc2c(c1)c(CC(=O)O)c(C)n2C(=O)c1ccc(Cl)cc1 [Positive Control Group, Indomethacin, reference compound] | 38.81% | – | – | – | – | – | 39
